One block for each compound: values may come before it. Activity calls are given as the source filed them. The calls are words filed in the database; no cut-off is given here.
What was measured:
[1] = target: Opioid receptors; mu/kappa/delta (Homo sapiens) (UniProt P41145+P41143+P35372); assay: Inhibition of opioid receptor (unknown origin) at […]
[2] = Inhibition of serine protease (unknown origin); design: species or system Homo sapiens
HL-60 = assay: Growth inhibition of human HL60 cells by Sulforhodamine B assay; assay type: functional
A2780 = assay: Growth inhibition of human A2780 cells by Sulforhodamine B assay; assay type: functional
[3] = Inhibition of thermolysin metalloprotease (unknown origin); design: species or system Homo sapiens
HepG2 = assay: Growth inhibition of human HepG2 cells; assay type: functional, cell-based
[4] = Inhibition of HIV protease; design: species or system Human immunodeficiency virus

Chain of Opioid receptors; mu/kappa/delta (Homo sapiens) (P35372 whole entry, looked up): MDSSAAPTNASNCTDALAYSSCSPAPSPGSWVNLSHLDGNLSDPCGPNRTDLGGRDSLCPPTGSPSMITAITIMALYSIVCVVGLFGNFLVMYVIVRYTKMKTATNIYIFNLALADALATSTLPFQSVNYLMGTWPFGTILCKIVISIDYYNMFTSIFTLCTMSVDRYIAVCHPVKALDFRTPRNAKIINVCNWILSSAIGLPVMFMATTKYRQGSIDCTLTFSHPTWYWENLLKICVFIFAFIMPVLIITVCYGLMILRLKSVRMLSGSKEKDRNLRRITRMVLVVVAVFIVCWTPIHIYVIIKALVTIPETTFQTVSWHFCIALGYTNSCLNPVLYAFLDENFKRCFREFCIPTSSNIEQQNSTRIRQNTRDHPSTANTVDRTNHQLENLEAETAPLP
Chain of Opioid receptors; mu/kappa/delta (Homo sapiens) (P41143 whole entry, looked up): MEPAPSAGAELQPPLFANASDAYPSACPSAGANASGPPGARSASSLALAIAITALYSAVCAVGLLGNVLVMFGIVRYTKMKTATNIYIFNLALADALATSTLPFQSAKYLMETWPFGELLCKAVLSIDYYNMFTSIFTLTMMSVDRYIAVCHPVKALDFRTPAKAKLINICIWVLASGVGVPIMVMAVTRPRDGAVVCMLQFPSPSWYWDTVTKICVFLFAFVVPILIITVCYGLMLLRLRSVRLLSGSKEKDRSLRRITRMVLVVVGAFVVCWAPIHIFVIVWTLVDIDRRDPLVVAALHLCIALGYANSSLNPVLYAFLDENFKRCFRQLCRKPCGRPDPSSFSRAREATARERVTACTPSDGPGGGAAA
Chain of Opioid receptors; mu/kappa/delta (Homo sapiens) (P41145 whole entry, looked up): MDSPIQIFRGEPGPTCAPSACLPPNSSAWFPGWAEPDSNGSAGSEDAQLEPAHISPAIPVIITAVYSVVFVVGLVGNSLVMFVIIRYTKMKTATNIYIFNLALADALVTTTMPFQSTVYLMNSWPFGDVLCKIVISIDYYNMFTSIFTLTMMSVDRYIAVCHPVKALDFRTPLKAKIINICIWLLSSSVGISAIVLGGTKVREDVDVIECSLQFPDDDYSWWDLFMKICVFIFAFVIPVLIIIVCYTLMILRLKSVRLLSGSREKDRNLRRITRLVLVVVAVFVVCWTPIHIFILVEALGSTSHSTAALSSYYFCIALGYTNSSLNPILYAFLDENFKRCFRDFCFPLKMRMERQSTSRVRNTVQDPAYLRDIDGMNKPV

Structure (SMILES): CN(C)CC(c1ccccc1)[Si]1(O)CCCCC1 (centres undefined)
inhibition [1]: < 50%

Structure (SMILES): COc1ccc(C(CN(C)C)[Si]2(O)CCCC2)cc1 (centres undefined)
inhibition [1]: < 50%

Structure (SMILES): COC(=O)/C=C/C[C@H]1OCCC[C@@H]1OC(C)=O
GI50 (HL-60): inactive

Structure (SMILES): CC(C)(C)[Si](C)(C)O[C@@H]1CCCO[C@@H]1/C=C\CO (relative stereo)
GI50 (A2780): > 100 µM

Structure (SMILES): CC(C)C[C@H](NC(=O)[C@H](Cc1ccccc1)C[Si](O)(O)CNC(=O)CCc1ccccc1)C(=O)O
IC50 [3]: 0.041 µM

Structure (SMILES): COC(=O)/C=C/C[C@H]1OCCC[C@@H]1O[Si](C)(C)C(C)(C)C (relative stereo)
GI50 (HL-60): 22 µM

Structure (SMILES): O=C(N[C@H]1c2ccccc2C[C@H]1O)[C@H](Cc1ccccc1)C[Si](O)(O)C[C@@H](Cc1ccccc1)C(=O)N[C@H]1c2ccccc2C[C@H]1O
IC50 [4]: 0.014 µM

Structure (SMILES): COc1ccc(C(CN(C)C)[Si]2(O)CCCCC2)cc1 (racemic)
inhibition [1]: < 50%

Further lines, results first:

Ki [2]: 0.107 µM
Structure (SMILES): C[C@H](C[Si](O)(O)[C@H](Cc1ccccc1)NC(=O)[C@@H]1CCCN1)C(N)=O

GI50 (HL-60): inactive
Structure (SMILES): COC(=O)/C=C/C[C@H]1OCCC[C@@H]1O (relative stereo)

EC50 (HepG2): 17 µM
Structure (SMILES): COc1ccc([Si](C)(C)[C@H]2[C@H](CC(=O)N3CCC[C@H]3CO)O[C@@]3(C(=O)N(Cc4cccc(I)c4)c4ccccc43)[C@@H]2C)cc1

GI50 (A2780): 98 µM
Structure (SMILES): COC(=O)/C=C/[C@H]1OCCC[C@H]1O[Si](C)(C)C(C)(C)C

GI50 (HL-60): inactive
Structure (SMILES): COC(=O)/C=C/C[C@H]1OCCC[C@@H]1OC(=O)c1ccccc1 (relative stereo)

GI50 (A2780): 7.3 µM
Structure (SMILES): COC(=O)/C=C\[C@H]1OCCC[C@H]1O[Si](C)(C)C(C)(C)C (relative stereo)
